Measured values: patent publication US5626869A, “Pharmaceutical composition containing a defined lipid system” (Pharmacia & Upjohn AB, priority 1992, dated 1997)

System: FXa
Settings: in vivo
Method: New Zealand white rabbits of both sexes, weighing 2.5-3.5 kg were used in all experiments. […] The rabbits were anaesthetized with Mebumal, 20 mg/kg. The anaesthesia was subsequently maintained as required. The animals were shaved and a medial laparotomy performed. The test compounds were then injected directly into the duodenum, after which the peritoneal cavity was closed. Rectal administration was performed by means of a syringe coupled to a plastic tube designed for use in the rectum of rabbits. The dosage was checked by weighing of the syringe and connecting tubings before and after administering the test compounds.
Blood samples (1 ml) were collected at 0.25, 0.5, 0.75, 1, 1.5, 2, 2.5, 3, 4, 5, 6, 7, 8, 9, and 10 hours with the aid of catheter inserted in the ear artery and mixed with sodium […] to a final concentration of 0.04M. The tubes were kept on ice until centrifuged at 800 g for 10 minutes. The anti-FXa activity in plasma was determined with an initial rate assay using bovine FXa (Kabi Pharmacia) and the chromogenic substrate S-2222.

heparin was tested, and the “degree of absorption compared with Fragmin” value was “significantly lower than that of Fragmin®”, the “rectal absorption when admixed with the lipid system” value was “significantly increased” and the “anti-FXa activity detected in plasma” value (2 mg/kg) was “detectable levels of anti-FXa activity”. The average absorption (rabbit, 2 mg/kg) was 15.7%±8.
